The text below walks through data of publication PMC2891302 (Bioconjugate chemistry, 2009).

Assay [1] concerns the target T1, hA1 AR (Homo sapiens, UniProt P30542).
T1 sequence (P30542 1-326): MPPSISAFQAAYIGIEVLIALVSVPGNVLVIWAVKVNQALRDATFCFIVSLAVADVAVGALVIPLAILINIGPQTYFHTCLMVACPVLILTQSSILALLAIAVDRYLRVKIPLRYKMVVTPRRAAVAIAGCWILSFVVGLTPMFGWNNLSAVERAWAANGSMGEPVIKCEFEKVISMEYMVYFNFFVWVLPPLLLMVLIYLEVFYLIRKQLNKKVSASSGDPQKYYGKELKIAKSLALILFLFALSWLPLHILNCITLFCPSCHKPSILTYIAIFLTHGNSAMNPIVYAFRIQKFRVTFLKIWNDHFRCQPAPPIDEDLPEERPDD
The experiment in a line: Radioligand binding at hA1 AR.

The target of assay [2] is T2, hA3 AR (Homo sapiens, UniProt P0DMS8).
T2 sequence (P0DMS8 1-318): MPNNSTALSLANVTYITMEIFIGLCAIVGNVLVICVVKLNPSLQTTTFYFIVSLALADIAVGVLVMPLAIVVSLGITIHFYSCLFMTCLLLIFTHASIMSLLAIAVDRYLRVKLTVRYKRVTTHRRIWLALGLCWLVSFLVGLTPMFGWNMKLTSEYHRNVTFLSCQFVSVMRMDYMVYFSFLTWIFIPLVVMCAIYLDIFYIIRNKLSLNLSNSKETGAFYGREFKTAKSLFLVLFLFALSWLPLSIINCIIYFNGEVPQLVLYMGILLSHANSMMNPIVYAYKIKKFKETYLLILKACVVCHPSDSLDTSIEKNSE
Briefly: Radioligand binding at hA3 AR.

The test system of assay [3] is human washed platelets. The experiment in a line: Inhibition of ADP-induced aggregation of human washed platelets. Format: cell-based. The note with it: Platelet, read-out: IC50, inhibition of platelet aggregation.
In assay [4] the target is T3, hA2B AR (Homo sapiens, UniProt P29275).
T3 sequence (P29275 1-332): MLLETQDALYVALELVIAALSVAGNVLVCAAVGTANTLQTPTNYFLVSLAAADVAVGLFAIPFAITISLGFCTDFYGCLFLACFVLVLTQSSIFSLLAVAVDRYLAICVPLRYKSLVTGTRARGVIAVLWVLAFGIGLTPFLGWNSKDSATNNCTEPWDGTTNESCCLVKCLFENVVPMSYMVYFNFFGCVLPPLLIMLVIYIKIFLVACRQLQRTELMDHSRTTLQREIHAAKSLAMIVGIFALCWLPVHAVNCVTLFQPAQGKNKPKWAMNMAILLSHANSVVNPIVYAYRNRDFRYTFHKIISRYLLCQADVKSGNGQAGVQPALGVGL
The experiment in a line: Cyclic AMP accumulation assay, CHO cells expressing hA2B AR. It counts as cell-based. To be noted: at 10 μM, in comparison to full agonist NECA (100%).

Where [5] appears, read: inhibition of radioligand binding at 1 μM.

Consider `CCNC(=O)[C@H]1O[C@@H](n2cnc3c(N)nc(NCCc4ccc(CCC(=O)O)cc4)nc32)[C@H](O)[C@@H]1O` [compound 1, 2-[4-(2-carboxylethyl)phenylethylamino]-5′-N-ethylcarboxamidoadenosine, reference compound], for which the inhibition at 1 µM in assay [1] (read-out: hA1 % inhibition) worked out at 24.9 ± 4.6%; in assay [2] (read-out: hA3 % inhibition), 59.8 ± 4.4%. In addition, in assay [3], the IC50 stood at 0.192 ± 0.09 µM.

Compound `CCNC(=O)[C@H]1O[C@@H](n2cnc3c(N)nc(NCCc4ccc(CCC(=O)NCCN)cc4)nc32)[C@H](O)[C@@H]1O` [compound 2, 2-[4-(2-Aminoethylaminocarbonylethyl)phenylethylamino]-5′-N-ethylcarboxamidoadenosine, reference compound] had a hA1 % inhibition in assay [1] (setting [5]) of 56.9 ± 9.1%. The “hA2B % activation of adenylate cyclase” value in assay [4] is on record as 5.5 ± 4.7%. Besides, the hA3 % inhibition in assay [2] (setting [5]) is on record as 85.3 ± 3.2%.

Usually inhibition stands for the relative decrease from the control value, in per cent. In general, IC50 refers to the concentration at which inhibition is half-maximal.
